“And” between values parts separate entries of the source, which are not always exact repeats. Identical values can stand only once.
How the values were obtained:
Microsomal CLint, rat = assay type: in vitro ADME; settings: rat microsomes
Procedure: (§1) Metabolic stability was performed at Cyprotex (UK). Pooled liver microsomes / cryopreserved pooled hepatocytes were purchased from a commercial supplier (BD Biosciences or Corning/InVitro Technologies).
(§2) The final incubation volume was 500 μL. A minus cofactor control incubation was included for each compound tested where 0.05 M phosphate buffer pH 7.4 was added instead of NADPH (minus NADPH). Each compound was incubated for 0, 5, 15, 30, and 45 min. The control (minus NADPH) was incubated for 45 min only.
(§3) All incubations were terminated by transferring 50 μL of incubate to 100 μL of acetonitrile containing internal standard at the appropriate time points. The termination plates were centrifuged at 2500 rpm for 20–30min at 4 °C to precipitate the protein. Following protein precipitation, samples were analysed using quantitative LC-MS/MS. A plot of ln peak area ratio (compound peak area/internal standard peak area) against time, yielded the gradient of the line.
(§4) Calculated intrinsic clearance values of control compounds were compared with the Cyprotex data library to confirm the appropriate activity of the microsomal/hepatocyte batch and data acceptance.

MDP-induced TNFα release = MDP-induced TNFα release in human whole blood; assay type: cell-based; settings: inhibition of MDP-induced TNFα release
Procedure: (§5) Before treatment with compound or vehicle, THP1 cells, human and rat PBMCs were counted using Vi-Cell cell counter (Invitrogen) and adjusted to a final cell density of […] using complete growth medium. Cells or whole blood were treated with vehicle (0.1% DMSO) or fixed concentrations of compound up to 1 μM in half log unit increments and incubated for the time period indicated in the figure.
Where the assessment of cytokines was performed, L18-MDP was added to the cell culture media (1 μg/ml) or to the rat blood samples (100 ng/ml) and samples were incubated for up to 4 h. […]
Cytokine measurement assay: Cytokine levels were measured in rat plasma or rat PBMCs cell culture supernatants using rat V-Plex TNFα, in human plasma or human PBMCs cell culture supernatants with either TNFα tissue culture or 7-plex kit. Rat serum and tissues samples from the in vivo L18-MDP acute inflammation model were analyzed using the rat TNFα, Il-6 and IL-8 U-Plex kits. […] Levels of cytokines spontaneously released from human colon biopsies cell culture supernatants were measured using Human IL-1 beta/IL-1F2 DuoSet ELISA (Bio-techne), Human IL-6 ELISA (Immunotools) and Human TNF-alpha DuoSet ELISA (Bio-techne). […] The MSD plates were analyzed using the MSD sector imager 6000 plate reader and cytokines concentration (pg/ml) was obtained by using the MSD DISCOVERY WORKBENCH software version 4.0.12.1 […]

RIPK2 [1] = molecular target: T1, RIPK2 (Homo sapiens, UniProt O43353); assay: RIPK2 degradation in THP-1 cells, capillary-based immunoassay, 18 h; assay type: cell-based; parameters: endogenous in cells; host or cells: THP-1 (ATCC TIB-202); settings: for RIPK2 level relative to DMSO control, mean / RIPK2 level relative to DMSO control, replicate: THP-1, 18 h
T1 sequence (O43353 whole entry): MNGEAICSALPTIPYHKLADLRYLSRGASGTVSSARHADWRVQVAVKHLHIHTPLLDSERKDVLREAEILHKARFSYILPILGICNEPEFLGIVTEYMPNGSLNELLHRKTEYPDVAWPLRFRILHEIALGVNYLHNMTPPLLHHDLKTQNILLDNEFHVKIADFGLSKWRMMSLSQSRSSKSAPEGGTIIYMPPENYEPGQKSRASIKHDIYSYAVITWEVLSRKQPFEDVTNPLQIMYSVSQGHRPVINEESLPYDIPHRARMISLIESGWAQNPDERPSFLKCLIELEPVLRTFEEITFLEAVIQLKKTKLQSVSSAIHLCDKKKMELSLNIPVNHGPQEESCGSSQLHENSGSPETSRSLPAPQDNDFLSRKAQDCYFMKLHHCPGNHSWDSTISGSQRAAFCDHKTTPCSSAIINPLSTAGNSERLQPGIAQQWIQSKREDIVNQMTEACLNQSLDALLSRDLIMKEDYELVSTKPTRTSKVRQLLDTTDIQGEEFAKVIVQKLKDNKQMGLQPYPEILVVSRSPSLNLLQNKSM
Procedure: The compounds were incubated with THP-1 cells for 18 h after which RIPK2 levels were determined using a capillary-based immunoassay (n = 3). All three PROTACs potently degraded RIPK2 in a concentration dependent manner (Fig. 1). […]. This discrepancy between the in vitro RIPK2 degradation and binding potency provides possible evidence for a catalytic mechanism of action of this compound.
as §5
Simple Western immunoassay: Cell lysates were mixed with 5× concentrated master mix (Protein Simple) and denatured at 95 °C on a heat block for 5 min together with the provided ladder (Protein Simple). Antibodies were diluted in the provided buffer as following: anti-RIPK2 (1:10 or 1:50), anti-cIAP1(1:10), anti-cIAP2 (1:10), anti-XIAP (1:10), mouse anti-β-actin (Abcam - 1:1000), rabbit anti-β-actin (Abcam - 1:50) and anti-vinculin (1:100). All reagents (blocking buffer, primary and secondary antibodies, streptavadin, luminol/peroxide, separation matrix, stacking matrix and water) were added to the Protein Simple plate containing the ladder and lysates and the plate was placed in a Protein Simple Western instrument and the Simple Western default size assay protocol was used. All samples were analyzed using the associated Compass software 3.1.7. The area under the peak values obtained for RIPK2, cIAP1, cIAP2 or XIAP were normalized relative to the control protein values.
In vitro experimental data were analyzed using a 4-parameter logistic equation in GraphPad Prism 5.0.4. to generate an estimate of the half-maximal concentration and maximal degradation, DC50 and Dmax value respectively, for concentration-degradation relationships. Cytokine levels were analyzed in a similar manner to yield IC50 and Imax values. […] Where analysis to a sigmoidal relationship was not possible, the data points are shown as mean ± s.e.m.

[2] = ChromLogD7.4 high-throughput chromatographic lipophilicity; assay type: physicochemical
RIPK2 [3] = molecular target: T1, RIPK2; assay: RIPK2 fluorescence polarisation binding assay
Microsomal CLint, human = assay type: in vitro ADME; settings: human microsomes
Procedure: as §1, §2, §3, §4

[4] = High-throughput precipitation solubility, chemiluminescent nitrogen-specific detection (CLND); assay type: physicochemical; settings: high-throughput precipitation assay

CN[C@@H](C)C(=O)N[C@H](C(=O)N1Cc2cc(OCCOCCOCCOCCOc3cc4nccc(Nc5ccc6scnc6c5)c4cc3S(=O)(=O)C(C)(C)C)ccc2C[C@H]1C(=O)N[C@@H]1CCCc2ccccc21)C(C)(C)C [PROTAC 2]
microsomal turnover (Microsomal CLint, rat): 11 mL/min/g liver | hWB MDP pIC50 ± SEM (n) (MDP-induced TNFα release): 7.95 ± 0 | RIPK2 level relative to DMSO control, mean (RIPK2 [1]; concentration 5.64503e-11 (uM)): 117.46% | RIPK2 level relative to DMSO control, replicate (RIPK2 [1]; concentration 5.64503e-11 (uM)): 117.27% and 131.32% and 103.77% | RIPK2 level relative to DMSO control, mean (RIPK2 [1]; concentration 1.69351e-10 (uM)): 97.22% | RIPK2 level relative to DMSO control, replicate (RIPK2 [1]; concentration 1.69351e-10 (uM)): 71.86% and 108.98% and 110.82% | RIPK2 level relative to DMSO control, mean (RIPK2 [1]; concentration 5.08053e-10 (uM)): 57.20% | RIPK2 level relative to DMSO control, replicate (RIPK2 [1]; concentration 5.08053e-10 (uM)): 41.71% and 72.70% and 57.18% | RIPK2 level relative to DMSO control, mean (RIPK2 [1]; concentration 1.52416e-9 (uM)): 26.83% | RIPK2 level relative to DMSO control, replicate (RIPK2 [1]; concentration 1.52416e-9 (uM)): 18.29% and 36.88% and 25.33% | RIPK2 level relative to DMSO control, mean (RIPK2 [1]; concentration 4.57247e-9 (uM)): 15.28% | RIPK2 level relative to DMSO control, replicate (RIPK2 [1]; concentration 4.57247e-9 (uM)): 12.82% and 16.44% and 16.58% | RIPK2 level relative to DMSO control, mean (RIPK2 [1]; concentration 1.37174e-8 (uM)): 8.47% | RIPK2 level relative to DMSO control, replicate (RIPK2 [1]; concentration 1.37174e-8 (uM)): 4.51% and 15.08% and 5.82% | RIPK2 level relative to DMSO control, mean (RIPK2 [1]; concentration 4.11523e-8 (uM)): 4.73% | RIPK2 level relative to DMSO control, replicate (RIPK2 [1]; concentration 4.11523e-8 (uM)): 6.91% and 6.83% and 0.44% | RIPK2 level relative to DMSO control, mean (RIPK2 [1]; concentration 1.23457e-7 (uM)): 7.39% | RIPK2 level relative to DMSO control, replicate (RIPK2 [1]; concentration 1.23457e-7 (uM)): 4.63% and 11.01% and 6.53% | RIPK2 level relative to DMSO control, mean (RIPK2 [1]; concentration 3.7037e-7 (uM)): 9.35% | RIPK2 level relative to DMSO control, replicate (RIPK2 [1]; concentration 3.7037e-7 (uM)): 5.28% and 16.09% and 6.68% | RIPK2 level relative to DMSO control, mean (RIPK2 [1]; concentration 1.11111e-6 (uM)): 11.12% | RIPK2 level relative to DMSO control, replicate (RIPK2 [1]; concentration 1.11111e-6 (uM)): 12.33% and 13.80% and 7.23% | RIPK2 level relative to DMSO control, mean (RIPK2 [1]; concentration 3.33333e-6 (uM)): 14.86% | RIPK2 level relative to DMSO control, replicate (RIPK2 [1]; concentration 3.33333e-6 (uM)): 10.80% and 18.84% and 14.95% | RIPK2 level relative to DMSO control, mean (RIPK2 [1]; concentration 1e-5 (uM)): 10.81% | RIPK2 level relative to DMSO control, replicate (RIPK2 [1]; concentration 1e-5 (uM)): 10.44% and 15.52% and 6.46% | pDC50 (log half-maximal degradation concentration) of RIPK2 (RIPK2 [1]; THP-1 cells, 18 h, n = 3): 9.4 ± 0.1 | ChromLogD7.4 [2]: 6.1 | IC50 (RIPK2 [3]): 10 nM | microsomal turnover (Microsomal CLint, human): 29 mL/min/g liver | CLND solubility, in words [4]: poor solubility

Source: PMC7083851, “Extended pharmacodynamic responses observed upon PROTAC-mediated degradation of RIPK2” (Communications Biology, 2020)
